Measurements: ChEMBL document CHEMBL6134813, “Arctigenin derivative TZOA restores mitochondrial homeostasis to combat rhabdovirus infections” (Eur J Med Chem, 2025)
Activity calls are given as the source filed them. No cut-off for these calls is given here.

What was measured:
[1] = test system: Infectious hematopoietic necrosis virus; experiment: Antiviral activity against IHNV infected in juvenile rainbow trout assessed as decrease in viral G gene expression in kidney of recipient fishes on horizontal transmission between virus-infected donor fishes and non-infected recipient fishes at 25 uM immersed together in compound for 48 hrs by qPCR analysis; assay type: functional, organism-based
[2] = test system: Infectious hematopoietic necrosis virus; experiment: Antiviral activity against IHNV infected in juvenile rainbow trout assessed as increase in Mx1 gene expression in kidney administered intraperitoneally measured after 2 days by RT-qPCR analysis; assay type: functional, organism-based; conditions: route ip, time 2.0 day
[3] = test system: Infectious hematopoietic necrosis virus; experiment: Antiviral activity against IHNV infected in juvenile rainbow trout assessed as increase in IRF3 gene expression in kidney administered intraperitoneally measured after 2 days by RT-qPCR analysis; assay type: functional, organism-based; conditions: route ip, time 2.0 day
[4] = test system: Infectious hematopoietic necrosis virus; experiment: Antiviral activity against IHNV infected in EPC cells (unknown origin) assessed as increase in cell proliferation at 4 uM measured after 72 hrs by CCK8 assay relative to control; assay type: functional
[5] = test system: Infectious hematopoietic necrosis virus; experiment: Antiviral activity against IHNV infected in EPC cells (unknown origin) assessed as minimal number of apoptotic bodies within observed area at 25 uM measured after 72 hrs by fluorescence microscopy; assay type: functional, organism-based
[6] = test system: Infectious hematopoietic necrosis virus; experiment: Antiviral activity against IHNV infected in EPC cells (unknown origin) assessed as inhibition of viral infection at 4 to 25 uM measured after 72 hrs by RT-qPCR analysis; assay type: functional, organism-based; conditions: dose 4-25 µM
[7] = test system: Infectious hematopoietic necrosis virus; experiment: Antiviral activity against IHNV infected in juvenile rainbow trout assessed as decrease in erythrocytes in kidney administered intraperitoneally measured after 2 days by H and E staining based analysis; assay type: functional, organism-based; conditions: route ip, time 2.0 day
[8] = test system: Infectious hematopoietic necrosis virus; experiment: Antiviral activity against IHNV infected in EPC cells (unknown origin) assessed as decrease in formation of new viral particles at 25 uM measured after 72 hrs by RT-qPCR analysis relative to control; assay type: functional; set-up: scale not given: the % may be the effect or the level left
[9] = test system: Infectious hematopoietic necrosis virus; experiment: Antiviral activity against IHNV infected in EPC cells (unknown origin) assessed as mitochondrial length by TEM analysis (reference value: 0.2 to 0.7 um); assay type: functional
[10] = test system: Infectious hematopoietic necrosis virus; experiment: Antiviral activity against IHNV infected in EPC cells (unknown origin) assessed as elongated rod-shaped mitochondria with double layered membrane by TEM analysis; assay type: functional, organism-based
[11] = test system: Infectious hematopoietic necrosis virus; experiment: Antiviral activity against IHNV infected in EPC cells (unknown origin) assessed as reduction in viral load for adsorption at 25 uM measured after 1 hr of incubation at 4 degreeC by RT-qPCR analysis relative to control; assay type: functional; set-up: scale not given: the % may be the effect or the level left
[12] = test system: Infectious hematopoietic necrosis virus; experiment: Antiviral activity against IHNV infected in juvenile rainbow trout assessed as decrease in hemorrhage in kidney administered intraperitoneally measured after 2 days by H and E staining based analysis; assay type: functional, organism-based; conditions: route ip, time 2.0 day
[13] = test system: Infectious hematopoietic necrosis virus; experiment: Antiviral activity against IHNV infected in EPC cells (unknown origin) assessed as viral titer measured per 0.1 ml incubated for 72 hrs by Reed-Muench method (reference value: 1 10^6.74TCID50); assay type: functional
[14] = test system: Infectious hematopoietic necrosis virus; experiment: Antiviral activity against IHNV infected in EPC cells (unknown origin) assessed as increase in virus-reduced average number of mitochondrial networks within cells at 25 uM incubated for 72 hrs by Mito-Tracker dye based analysis; assay type: functional, organism-based
[15] = test system: Infectious hematopoietic necrosis virus; experiment: Antiviral activity against IHNV infected in EPC cells (unknown origin) assessed as cristae of varying lengths with attached granules in inner membrane of mitochondria by TEM analysis; assay type: functional, organism-based
[16] = test system: Infectious hematopoietic necrosis virus; experiment: Antiviral activity against IHNV infected in EPC cells (unknown origin) assessed as inhibition of viral N gene expression at 25 uM measured after 72 hrs by RT-qPCR analysis relative to control; assay type: functional
[17] = test system: Infectious hematopoietic necrosis virus; experiment: Antiviral activity against IHNV infected in EPC cells (unknown origin) assessed as reduction in virus-induced mitochondrial-lysosomal contact at 25 uM incubated for 72 hrs by Mito-Tracker/Lyso-Tracker dye based analysis; assay type: functional, organism-based
[18] = test system: Infectious hematopoietic necrosis virus; experiment: Antiviral activity against IHNV infected in EPC cells (unknown origin) assessed as decrease in virus-induced number of individual mitochondria per cell at 25 uM incubated for 72 hrs by Mito-Tracker dye based analysis; assay type: functional, organism-based
[19] = test system: Infectious hematopoietic necrosis virus; experiment: Antiviral activity against IHNV infected in juvenile rainbow trout assessed as increase in survival rate administered intraperitoneally measured for 14 days relative to control; assay type: functional; conditions: route ip; time 14 day
[20] = test system: Infectious hematopoietic necrosis virus; experiment: Antiviral activity against IHNV infected in EPC cells (unknown origin) assessed as increase in virus-reduced MAVS expression in cells by Western blot analysis; assay type: functional, organism-based
[21] = test system: Infectious hematopoietic necrosis virus; experiment: Antiviral activity against IHNV infected in EPC cells (unknown origin) assessed as viral titer measured per 0.1 ml incubated for 96 hrs by Reed-Muench method (reference value: 1 10^7.77TCID50); assay type: functional
[22] = test system: Infectious hematopoietic necrosis virus; experiment: Antiviral activity against IHNV infected in EPC cells (unknown origin) assessed as reduction in cytopathic effect at >4 uM measured after 72 hrs by RT-qPCR analysis; assay type: functional, organism-based
[23] = Cytotoxicity against EPC cells (unknown origin) assessed as cell viability up to 25 uM measured after 72 hrs by CCK8 assay; assay type: toxicity, cell-based
[24] = test system: Infectious hematopoietic necrosis virus; experiment: Antiviral activity against IHNV infected in juvenile rainbow trout assessed as decrease in erythrocytes in spleen administered intraperitoneally measured after 2 days by H and E staining based analysis; assay type: functional, organism-based; conditions: route ip, time 2.0 day
[25] = test system: Infectious hematopoietic necrosis virus; experiment: Antiviral activity against IHNV infected in EPC cells (unknown origin) assessed as inhibition of viral N gene expression measured after 72 hrs by RT-qPCR analysis; assay type: functional, organism-based; conditions: dose 0.1-100 µM
[26] = test system: Infectious hematopoietic necrosis virus; experiment: Antiviral activity against IHNV infected in juvenile rainbow trout assessed as decrease in viral G gene expression in spleen administered intraperitoneally measured after 1 to 4 days by RT-qPCR analysis; assay type: functional, organism-based; conditions: route ip, time 1-4 day
[27] = test system: Infectious hematopoietic necrosis virus; experiment: Antiviral activity against IHNV infected in juvenile rainbow trout assessed as increase in ISG15 gene expression in spleen administered intraperitoneally measured after 2 days by RT-qPCR analysis; assay type: functional, organism-based; conditions: route ip, time 2.0 day
[28] = test system: Infectious hematopoietic necrosis virus; experiment: Antiviral activity against IHNV infected in juvenile rainbow trout assessed as decrease in viral titer in recipient fishes on horizontal transmission between virus-infected donor fishes and non-infected recipient fishes at 25 uM immersed together in compound for 48 hrs; assay type: functional, organism-based
[29] = test system: Infectious hematopoietic necrosis virus; experiment: Antiviral activity against IHNV infected in EPC cells (unknown origin) assessed as area of mitochondria by TEM analysis (reference value: 0.05 to 0.2 um2); assay type: functional
[30] = Cytotoxicity against EPC cells (unknown origin) assessed as cell viability at 64 uM measured after 72 hrs by CCK8 assay; assay type: toxicity, cell-based

SMILES: COc1ccc(C[C@H]2COC(=O)[C@@H]2Cc2ccc(OCCCCCCCCn3cncn3)c(OC)c2)cc1OC
- Activity [1]: Active
- Activity [2]: Active
- Activity [3]: Active
- Activity [4]: >50%
- Activity [5]: Active
- inhibition [6]: Active
- Activity [7]: Active
- Activity [8]: 100%
- Activity [9]: 0.8 um
- Activity [10]: Active
- Activity [11]: 20%
- Activity [12]: Active
- Activity [13]: 1 10^4.73TCID50
- Activity [14]: Active
- Activity [15]: Active
- inhibition at 25 µM [16]: > 90%
- Activity [17]: Active
- Activity [18]: Active
- Survival [19]: 44%
- Activity [20]: Active
- Activity [21]: 1 10^5.48TCID50
- Activity [22]: Active
- Activity [23]: Non-toxic
- Activity [24]: Active
- inhibition [25]: Dose-dependent-effect
- Activity [26]: Active
- Activity [27]: Active
- Activity [28]: Active
- Activity [29]: 0.2 um2
- Activity [30]: Toxic
